Patent publication US7785828B1 (priority 2003, dated 2010)

Columns and labels:
Format in all cases: cell-based
Fusarium graminearum = tested on: Fusarium graminearum
Septoria tritici = tested on: Septoria tritici
Mycosphaerella fijiensis = tested on: Mycosphaerella fijiensis

Sequence	Antifungal activity, Fusarium graminearum (improvement compared to DmAMP1) (Fusarium graminearum)	Antifungal activity, Septoria tritici (improvement compared to DmAMP1) (Septoria tritici)	Antifungal activity, Mycosphaerella fijiensis (improvement compared to DmAMP1) (Mycosphaerella fijiensis)
DGVKLCERPSKTWSGHCGNTKHCDKQCRSWEGAAHGACHVRNGKWKCFCYFNC (Defensin like) [L7-94]	++ (key: + indicating 1- to 5-fold improvement compared to DmAMP1; ++ indicating >5- to 10-fold improvement; +++ indicating >10-fold improvement)	+ (key: + indicating 1- to 5-fold improvement compared to DmAMP1; ++ indicating >5- to 10-fold improvement; +++ indicating >10-fold improvement)	+ (key: + indicating 1- to 5-fold improvement compared to DmAMP1; ++ indicating >5- to 10-fold improvement; +++ indicating >10-fold improvement)
DGVKLCEKASQTWSGNCGNTKHCDTQCRNWEGAKHGACHKRNGKWKCFCYFNC (Defensin like) [L7-174]	+++ (key: + indicating 1- to 5-fold improvement compared to DmAMP1; ++ indicating >5- to 10-fold improvement; +++ indicating >10-fold improvement)	++ (key: + indicating 1- to 5-fold improvement compared to DmAMP1; ++ indicating >5- to 10-fold improvement; +++ indicating >10-fold improvement)	+ (key: + indicating 1- to 5-fold improvement compared to DmAMP1; ++ indicating >5- to 10-fold improvement; +++ indicating >10-fold improvement)
NLCEKASKTWTGNCGNTKHCDTQCRNWEGAKHGACHKRNGKWKCFCYFNC (Defensin like) [L6-32]	+++ (key: + indicating 1- to 5-fold improvement compared to DmAMP1; ++ indicating >5- to 10-fold improvement; +++ indicating >10-fold improvement)	+++ (key: + indicating 1- to 5-fold improvement compared to DmAMP1; ++ indicating >5- to 10-fold improvement; +++ indicating >10-fold improvement)	+++ (key: + indicating 1- to 5-fold improvement compared to DmAMP1; ++ indicating >5- to 10-fold improvement; +++ indicating >10-fold improvement)
DGVKLCEKASQTWSGHCGNTKHCDNQCKNWEGAKHGACHKRNGKWKCFCYFNC [L7-434] (Defensin like)	+++ (key: + indicating 1- to 5-fold improvement compared to DmAMP1; ++ indicating >5- to 10-fold improvement; +++ indicating >10-fold improvement)	+ (key: + indicating 1- to 5-fold improvement compared to DmAMP1; ++ indicating >5- to 10-fold improvement; +++ indicating >10-fold improvement)	+ (key: + indicating 1- to 5-fold improvement compared to DmAMP1; ++ indicating >5- to 10-fold improvement; +++ indicating >10-fold improvement)
NLCERASKTWSGNCGNTKHCDTQCKSWEGAKHGACHVRNGKHKCFCYFNC (Defensin like) [L9-26]	+++ (key: + indicating 1- to 5-fold improvement compared to DmAMP1; ++ indicating >5- to 10-fold improvement; +++ indicating >10-fold improvement)	+++ (key: + indicating 1- to 5-fold improvement compared to DmAMP1; ++ indicating >5- to 10-fold improvement; +++ indicating >10-fold improvement)	++ (key: + indicating 1- to 5-fold improvement compared to DmAMP1; ++ indicating >5- to 10-fold improvement; +++ indicating >10-fold improvement)
NLCERASKTWSGNCGNTKHCDTQCRSWEGAAHGACHKRSGKWKCFCYFNC (Defensin like) [L9-41]	++ (key: + indicating 1- to 5-fold improvement compared to DmAMP1; ++ indicating >5- to 10-fold improvement; +++ indicating >10-fold improvement)	+ (key: + indicating 1- to 5-fold improvement compared to DmAMP1; ++ indicating >5- to 10-fold improvement; +++ indicating >10-fold improvement)	+ (key: + indicating 1- to 5-fold improvement compared to DmAMP1; ++ indicating >5- to 10-fold improvement; +++ indicating >10-fold improvement)
NLCEKASKTWSGNCGNTKHCDTQCKSWEGAKHGACHVRNGKHKCFCYFNC (Defensin like) [L5-13]	+++ (key: + indicating 1- to 5-fold improvement compared to DmAMP1; ++ indicating >5- to 10-fold improvement; +++ indicating >10-fold improvement)	+++ (key: + indicating 1- to 5-fold improvement compared to DmAMP1; ++ indicating >5- to 10-fold improvement; +++ indicating >10-fold improvement)	+ (key: + indicating 1- to 5-fold improvement compared to DmAMP1; ++ indicating >5- to 10-fold improvement; +++ indicating >10-fold improvement)
NLCERASKTWSGNCGNTKHCDNQCRSWEGAKHGACHVRSGKHKCFCYFNC (Defensin like) [L9-16]	+++ (key: + indicating 1- to 5-fold improvement compared to DmAMP1; ++ indicating >5- to 10-fold improvement; +++ indicating >10-fold improvement)	++ (key: + indicating 1- to 5-fold improvement compared to DmAMP1; ++ indicating >5- to 10-fold improvement; +++ indicating >10-fold improvement)	+ (key: + indicating 1- to 5-fold improvement compared to DmAMP1; ++ indicating >5- to 10-fold improvement; +++ indicating >10-fold improvement)
NLCERASKTWSGNCGNTKHCDTQCRNWEGAKHGACHKRNGKWKCFCYFNC (Defensin like) [L9-32]	++ (key: + indicating 1- to 5-fold improvement compared to DmAMP1; ++ indicating >5- to 10-fold improvement; +++ indicating >10-fold improvement)	+ (key: + indicating 1- to 5-fold improvement compared to DmAMP1; ++ indicating >5- to 10-fold improvement; +++ indicating >10-fold improvement)	+ (key: + indicating 1- to 5-fold improvement compared to DmAMP1; ++ indicating >5- to 10-fold improvement; +++ indicating >10-fold improvement)
NLCEKASKTWTGNCGNTKHCDNQCRNWEGAAHGACHKRNGKWKCFCYFNC (Defensin like) [L3-71]	+++ (key: + indicating 1- to 5-fold improvement compared to DmAMP1; ++ indicating >5- to 10-fold improvement; +++ indicating >10-fold improvement)	+++ (key: + indicating 1- to 5-fold improvement compared to DmAMP1; ++ indicating >5- to 10-fold improvement; +++ indicating >10-fold improvement)	+++ (key: + indicating 1- to 5-fold improvement compared to DmAMP1; ++ indicating >5- to 10-fold improvement; +++ indicating >10-fold improvement)
NLCERASKTWSGNCGNTKHCDNQCKSWEGAAHGACHKRNGKWKCFCYFNC (Defensin like) [L9-18]	++ (key: + indicating 1- to 5-fold improvement compared to DmAMP1; ++ indicating >5- to 10-fold improvement; +++ indicating >10-fold improvement)	++ (key: + indicating 1- to 5-fold improvement compared to DmAMP1; ++ indicating >5- to 10-fold improvement; +++ indicating >10-fold improvement)	+ (key: + indicating 1- to 5-fold improvement compared to DmAMP1; ++ indicating >5- to 10-fold improvement; +++ indicating >10-fold improvement)
NLCEKASKTWTGNCGNTKHCDNQCRNWEGAKHGACHVRSGKHKCFCYFNC (Defensin like) [L9-22]	+++ (key: + indicating 1- to 5-fold improvement compared to DmAMP1; ++ indicating >5- to 10-fold improvement; +++ indicating >10-fold improvement)	+++ (key: + indicating 1- to 5-fold improvement compared to DmAMP1; ++ indicating >5- to 10-fold improvement; +++ indicating >10-fold improvement)	+ (key: + indicating 1- to 5-fold improvement compared to DmAMP1; ++ indicating >5- to 10-fold improvement; +++ indicating >10-fold improvement)
NLCERASKTWTGNCGNTKHCDNQCRNWEGAAHGACHVRSGKHKCFCYFNC (Defensin like) [L6-85]	+++ (key: + indicating 1- to 5-fold improvement compared to DmAMP1; ++ indicating >5- to 10-fold improvement; +++ indicating >10-fold improvement)	+ (key: + indicating 1- to 5-fold improvement compared to DmAMP1; ++ indicating >5- to 10-fold improvement; +++ indicating >10-fold improvement)	+ (key: + indicating 1- to 5-fold improvement compared to DmAMP1; ++ indicating >5- to 10-fold improvement; +++ indicating >10-fold improvement)
NLCEKASKTWSGNCGNTKHCDTQCRNWEGAKHGACHVRNGKHKCFCYFNC (Defensin like) [L6-13]	+++ (key: + indicating 1- to 5-fold improvement compared to DmAMP1; ++ indicating >5- to 10-fold improvement; +++ indicating >10-fold improvement)	+++ (key: + indicating 1- to 5-fold improvement compared to DmAMP1; ++ indicating >5- to 10-fold improvement; +++ indicating >10-fold improvement)	++ (key: + indicating 1- to 5-fold improvement compared to DmAMP1; ++ indicating >5- to 10-fold improvement; +++ indicating >10-fold improvement)
DGVKLCERASQTWTGHCGNTKHCDNQCRSWEGAAHGACHKRSGKWKCFCYFNC (Defensin like) [L7-82]	++ (key: + indicating 1- to 5-fold improvement compared to DmAMP1; ++ indicating >5- to 10-fold improvement; +++ indicating >10-fold improvement)	+ (key: + indicating 1- to 5-fold improvement compared to DmAMP1; ++ indicating >5- to 10-fold improvement; +++ indicating >10-fold improvement)	+++ (key: + indicating 1- to 5-fold improvement compared to DmAMP1; ++ indicating >5- to 10-fold improvement; +++ indicating >10-fold improvement)
DGVKLCEKASQTWSGHCGNTKHCDNQCKNWEGAKHGACHKRNGKWKCFCYFNC [L7-350] (Defensin like)	+ (key: + indicating 1- to 5-fold improvement compared to DmAMP1; ++ indicating >5- to 10-fold improvement; +++ indicating >10-fold improvement)	+ (key: + indicating 1- to 5-fold improvement compared to DmAMP1; ++ indicating >5- to 10-fold improvement; +++ indicating >10-fold improvement)	+ (key: + indicating 1- to 5-fold improvement compared to DmAMP1; ++ indicating >5- to 10-fold improvement; +++ indicating >10-fold improvement)
